The test system of data set [1] is HEp-2. As to the kind of experiment: Cytotoxicity against human Hep2 cells assessed as reduction of cell viability at 80 to 100 uM by CellTiter-Glo luminescent assay. Format: functional, cell-based. The note with it: TDE = time-dependent effect.
Data set [2] has as its target T1, Cyclin-dependent kinase 2/cyclin E1 (Homo sapiens) (UniProt P24864+P24941). As to the kind of experiment: Inhibition of CDK2/Cyclin E in HEK293T cells assessed as reduction of hyperphosphorylated pRB expression at 100 uM after 24 hrs by Western blot analysis relative to control. The format is cell-based. The note with it: HEK-293T.
Data set [3] has as its system Vero. As to the kind of experiment: Cytotoxicity against African green monkey Vero cells assessed as reduction of cell viability after 24 to 72 hrs by CellTiter-Glo luminescent assay. Format: cell-based. The note with it: chlorocebus sabaeus.
Data set [4] concerns the target T2, Cyclin-dependent kinase 2 (Homo sapiens, UniProt P24941). The data set can be described thus: Inhibition of CDK2 phosphorylation in human Hep2 cells at 100 uM after 24 hrs by Western blot analysis relative to control. Format: cell-based. Particulars: HEp-2. Background: Immunoblotting shows a protein as a band on a membrane.
Data set [5] has as its system HEK-293T. The data set can be described thus: Cytotoxicity against HEK293T cells assessed as reduction of cell viability at 80 to 100 uM by CellTiter-Glo luminescent assay. The format is functional, cell-based. The note with it: Homo sapiens, TDE = time-dependent effect.
For data set [6], the system named is Vero. The data set can be described thus: Inhibition of CDK2 phosphorylation in African green monkey Vero cells at 100 uM after 24 hrs by Western blot analysis relative to control. Format: cell-based. The note with it: Chlorocebus sabaeus.
Data set [7] has as its system HEK-293T. As to the kind of experiment: Cytotoxicity against HEK293T cells assessed as reduction of cell viability after 24 to 72 hrs by CellTiter-Glo luminescent assay. Format: functional, cell-based. The note with it: Homo sapiens. In general terms: In ATP-based viability assays light output follows the ATP content of the culture.
Data set [8] has as its system Vero. As to the kind of experiment: Cytotoxicity against African green monkey Vero cells assessed as reduction of cell viability at 80 to 100 uM by CellTiter-Glo luminescent assay. Format: cell-based. The note with it: chlorocebus sabaeus, TDE = time-dependent effect.
The target in data set [9] is T2, Cyclin-dependent kinase 2. As to the kind of experiment: Binding affinity to CDK2 allosteric site (unknown origin).
The target of data set [10] is T2, Cyclin-dependent kinase 2. The data set can be described thus: Inhibition of CDK2 phosphorylation in HEK293T cells at 100 uM after 24 hrs by Western blot analysis relative to control. Format: cell-based. Particulars: HEK-293T.
In data set [11] the test system is Vero. The data set can be described thus: Inhibition of CDK2/Cyclin E in African green monkey Vero cells assessed as reduction of hyperphosphorylated pRB expression at 100 uM after 24 hrs by Western blot analysis relative to control. Format: cell-based. Particulars: Chlorocebus sabaeus.
For data set [12], the target named is T1, Cyclin-dependent kinase 2/cyclin E1 (Homo sapiens). The data set can be described thus: Inhibition of CDK2/Cyclin E in HEK293T cells assessed as reduction of EGF-stimulated E2F pathway after 24 hrs by dual-Glo luciferase reporter gene assay relative to control. The format is cell-based. Particulars: HEK-293T. Background: A reporter such as luciferase makes a cellular process visible.

The target of data set [13] is G1/S-specific cyclin-E1 (Homo sapiens) (UniProt P24864). The data set can be described thus: Inhibition of cyclin E phosphorylation in human Hep2 cells at 100 uM after 24 hrs by Western blot analysis relative to control. Format: cell-based. Particulars: HEp-2.
Data set [14] concerns Vero. As to the kind of experiment: Inhibition of cyclin E phosphorylation in African green monkey Vero cells at 100 uM after 24 hrs by Western blot analysis relative to control. Particulars: Chlorocebus sabaeus. Format: cell-based.
In data set [15] the test system is HEp-2. The data set can be described thus: Cytotoxicity against human Hep2 cells assessed as reduction of cell viability after 24 to 72 hrs by CellTiter-Glo luminescent assay. The format is functional, cell-based.
Data set [16] addresses G1/S-specific cyclin-E1 (Homo sapiens) (UniProt P24864). As to the kind of experiment: Inhibition of cyclin E phosphorylation in HEK293T cells at 100 uM after 24 hrs by Western blot analysis relative to control. The format is cell-based. Particulars: HEK-293T.
Data set [17] has as its target T1, Cyclin-dependent kinase 2/cyclin E1 (Homo sapiens). The data set can be described thus: Inhibition of CDK2/Cyclin E in human Hep2 cells assessed as reduction of hyperphosphorylated pRB expression at 100 uM after 24 hrs by Western blot analysis relative to control. The format is cell-based. The note with it: HEp-2.

Calls of active or inactive are those of the source. The rule behind the calls is not given here.

Sequence of G1/S-specific cyclin-E1 (Homo sapiens) (P24864 whole entry): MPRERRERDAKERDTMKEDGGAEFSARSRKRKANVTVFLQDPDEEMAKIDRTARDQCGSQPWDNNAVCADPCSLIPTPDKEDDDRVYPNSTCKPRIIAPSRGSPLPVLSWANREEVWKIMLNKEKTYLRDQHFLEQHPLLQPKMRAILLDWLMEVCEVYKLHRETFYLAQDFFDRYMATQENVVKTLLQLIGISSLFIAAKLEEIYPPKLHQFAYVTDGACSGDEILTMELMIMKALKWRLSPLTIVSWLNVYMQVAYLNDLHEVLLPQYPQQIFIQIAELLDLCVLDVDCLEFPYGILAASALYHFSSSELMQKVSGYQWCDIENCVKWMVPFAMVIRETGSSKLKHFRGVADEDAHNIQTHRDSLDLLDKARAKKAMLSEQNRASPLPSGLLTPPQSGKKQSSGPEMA

Broadly, the IC50 is the concentration that inhibits the measured activity by half. `Cc1[nH]c2c(c1C1(C)NC3=C(C(=O)CC(c4ccccc4)C3)C1=O)C(=O)CC(c1ccccc1)C2` (configuration not stated): the Activity entry was “tde” in the data set on HEp-2 [1]; “Dose-dependent effect” in the data set with Vero [3]; “tde” with HEK-293T [5]; “Dose-dependent effect” with HEK-293T [7]; “tde” with Vero [8]; “Dose-dependent effect” in the data set on HEp-2 [15]. Further, the inhibition result (in data set [2]; in data set [4]; with Vero [6]; in data set [10]; in the data set with Vero [11]; in data set [13]) was “Active” in each case. The inhibition result (in the data set on Vero [14]; in [16]; in data set [17]) was “Active” in each case. In addition, the IC50 in data set [9] is more than 91 µM. In data set [12], the inhibition result is “Dose-dependent effect”.
